Patent US10285989B2, “Pyrimidinone amide compounds as PDE2 inhibitors” (Merck Sharp & Dohme Corp., priority 2015, dated 2019)
Read-outs that look alike come from different tables or passages of the source.

Legend:
Rhesus PDE2A3 = Rhesus PDE2A3 (Macaca mulatta, UniProt B3VTJ2); assay: PDE2 fluorescence polarization (IMAP FP) inhibition assay, rhesus PDE2A3; assay type: biochemical, rhesus macaque
human PDE2A1 = human PDE2A1 (Homo sapiens (Human), UniProt O00408); assay: PDE2 IMAP FP inhibition assay, human PDE2A1 (selectivity panel format); assay type: biochemical
Procedure, shortened: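 Enzyme dosed to give about 20% substrate turnover acts for 60 min at room temperature on 50 nM FAM-cAMP plus 1000 nM cGMP (Tris pH 7.2, MgCl2, DTT, Tween-20 buffer). IMAP binding solution then stops the reaction; after 1 h, polarization is measured from parallel and perpendicular fluorescence.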

P-glycoprotein (P-gp) = P-glycoprotein (P-gp) (Homo sapiens (Human), UniProt P08183); assay: P-gp transport, experimental BA/AB ratio, human; assay type: in vitro ADME; details: LLC-PK1, 1 μM substrate concentration
Excerpt: (§1) See Doan et al. “Passive permeability and P-glycoprotein-mediated efflux differentiate central nervous system (CNS) and non-CNS marketed drugs”, J. Pharm. Exper. […] Desirable human BA/AB ratio is less than 2.0. […] See, for example, Desai, et al. Integration of in Silico and in Vitro Tools for Scaffold Optimization during Drug Discovery: Predicting P-glycoprotein Efflux” Mol. Pharmac.

[1] = target: P-glycoprotein (P-gp, rat Mdr1a) (Rattus norvegicus, UniProt Q6PSM0); assay: P-gp transport, experimental BA/AB ratio, rat LLC-Mdr1a; assay type: in vitro ADME; details: LLC-PK1; rat LLC-Mdrla; 1 μM substrate concentration
Excerpt: as §1

[2] = Lab B, read-out: Rhesus PDE2 Ki (nM) - Lab B
[3] = Lab B, read-out: Human PDE2 Ki (nM) - Lab B
[4] = Lab A, read-out: Rhesus PDE2 Ki (nM) - Lab A
[5] = Lab A, read-out: Human PDE2 Ki (nM) - Lab A

Sequence of P-glycoprotein (P-gp) (P08183 whole entry): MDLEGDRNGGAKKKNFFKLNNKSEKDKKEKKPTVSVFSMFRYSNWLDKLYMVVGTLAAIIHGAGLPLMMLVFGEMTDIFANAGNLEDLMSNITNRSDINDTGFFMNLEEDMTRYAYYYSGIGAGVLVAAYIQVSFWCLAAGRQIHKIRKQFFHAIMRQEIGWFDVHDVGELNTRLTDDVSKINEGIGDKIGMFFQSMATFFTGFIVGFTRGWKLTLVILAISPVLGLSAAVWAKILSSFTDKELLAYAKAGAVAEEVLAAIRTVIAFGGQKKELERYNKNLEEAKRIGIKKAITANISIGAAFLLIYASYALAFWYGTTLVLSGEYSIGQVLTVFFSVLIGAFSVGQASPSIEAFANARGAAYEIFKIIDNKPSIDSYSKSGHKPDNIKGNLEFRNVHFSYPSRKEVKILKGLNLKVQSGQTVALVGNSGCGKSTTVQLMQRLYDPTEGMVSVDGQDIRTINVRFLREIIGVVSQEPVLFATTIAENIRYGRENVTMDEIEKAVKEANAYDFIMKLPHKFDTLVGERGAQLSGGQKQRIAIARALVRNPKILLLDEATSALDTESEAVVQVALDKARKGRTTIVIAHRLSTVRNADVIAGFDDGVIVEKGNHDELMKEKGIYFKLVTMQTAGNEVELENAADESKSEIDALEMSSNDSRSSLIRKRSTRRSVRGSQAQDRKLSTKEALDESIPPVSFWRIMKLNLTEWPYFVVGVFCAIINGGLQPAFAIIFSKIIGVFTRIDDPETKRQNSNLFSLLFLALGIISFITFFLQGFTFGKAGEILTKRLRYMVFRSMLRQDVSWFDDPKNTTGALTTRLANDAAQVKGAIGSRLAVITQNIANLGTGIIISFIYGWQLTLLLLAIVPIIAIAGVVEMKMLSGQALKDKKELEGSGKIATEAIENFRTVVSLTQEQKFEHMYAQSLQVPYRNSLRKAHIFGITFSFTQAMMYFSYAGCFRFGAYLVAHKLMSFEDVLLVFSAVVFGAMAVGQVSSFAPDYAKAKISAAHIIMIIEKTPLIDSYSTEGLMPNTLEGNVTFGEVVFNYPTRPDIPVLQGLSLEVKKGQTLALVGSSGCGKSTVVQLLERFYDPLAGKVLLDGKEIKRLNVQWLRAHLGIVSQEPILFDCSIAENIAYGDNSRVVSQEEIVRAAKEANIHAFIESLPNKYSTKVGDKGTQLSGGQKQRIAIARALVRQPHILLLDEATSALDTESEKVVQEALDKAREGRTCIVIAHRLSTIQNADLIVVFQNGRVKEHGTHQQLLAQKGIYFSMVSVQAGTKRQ
Sequence of Rhesus PDE2A3 (B3VTJ2 1-941): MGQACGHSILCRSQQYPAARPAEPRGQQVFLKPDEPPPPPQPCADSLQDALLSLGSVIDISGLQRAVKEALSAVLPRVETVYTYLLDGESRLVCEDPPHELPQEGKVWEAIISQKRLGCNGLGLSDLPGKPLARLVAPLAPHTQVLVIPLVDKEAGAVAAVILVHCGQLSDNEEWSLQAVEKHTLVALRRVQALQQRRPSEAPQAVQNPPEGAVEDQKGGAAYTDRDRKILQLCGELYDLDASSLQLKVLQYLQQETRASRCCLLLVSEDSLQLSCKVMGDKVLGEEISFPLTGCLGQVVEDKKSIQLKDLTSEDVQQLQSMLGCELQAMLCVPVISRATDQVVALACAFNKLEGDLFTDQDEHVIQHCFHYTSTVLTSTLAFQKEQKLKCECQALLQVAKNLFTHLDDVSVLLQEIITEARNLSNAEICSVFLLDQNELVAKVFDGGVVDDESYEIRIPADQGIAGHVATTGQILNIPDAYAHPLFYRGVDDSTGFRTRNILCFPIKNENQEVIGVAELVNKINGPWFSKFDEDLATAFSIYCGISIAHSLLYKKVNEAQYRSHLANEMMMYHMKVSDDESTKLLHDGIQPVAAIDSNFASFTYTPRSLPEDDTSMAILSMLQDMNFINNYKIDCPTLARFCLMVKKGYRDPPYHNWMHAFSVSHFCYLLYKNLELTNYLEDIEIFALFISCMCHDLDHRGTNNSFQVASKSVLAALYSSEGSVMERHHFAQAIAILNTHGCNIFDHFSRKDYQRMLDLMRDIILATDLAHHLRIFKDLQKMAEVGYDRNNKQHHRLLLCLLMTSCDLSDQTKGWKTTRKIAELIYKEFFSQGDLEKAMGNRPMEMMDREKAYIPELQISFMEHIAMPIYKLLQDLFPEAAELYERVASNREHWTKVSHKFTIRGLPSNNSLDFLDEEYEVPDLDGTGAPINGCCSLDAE
Sequence of human PDE2A1 (O00408 other isoform, or with tags, fused parts or gaps): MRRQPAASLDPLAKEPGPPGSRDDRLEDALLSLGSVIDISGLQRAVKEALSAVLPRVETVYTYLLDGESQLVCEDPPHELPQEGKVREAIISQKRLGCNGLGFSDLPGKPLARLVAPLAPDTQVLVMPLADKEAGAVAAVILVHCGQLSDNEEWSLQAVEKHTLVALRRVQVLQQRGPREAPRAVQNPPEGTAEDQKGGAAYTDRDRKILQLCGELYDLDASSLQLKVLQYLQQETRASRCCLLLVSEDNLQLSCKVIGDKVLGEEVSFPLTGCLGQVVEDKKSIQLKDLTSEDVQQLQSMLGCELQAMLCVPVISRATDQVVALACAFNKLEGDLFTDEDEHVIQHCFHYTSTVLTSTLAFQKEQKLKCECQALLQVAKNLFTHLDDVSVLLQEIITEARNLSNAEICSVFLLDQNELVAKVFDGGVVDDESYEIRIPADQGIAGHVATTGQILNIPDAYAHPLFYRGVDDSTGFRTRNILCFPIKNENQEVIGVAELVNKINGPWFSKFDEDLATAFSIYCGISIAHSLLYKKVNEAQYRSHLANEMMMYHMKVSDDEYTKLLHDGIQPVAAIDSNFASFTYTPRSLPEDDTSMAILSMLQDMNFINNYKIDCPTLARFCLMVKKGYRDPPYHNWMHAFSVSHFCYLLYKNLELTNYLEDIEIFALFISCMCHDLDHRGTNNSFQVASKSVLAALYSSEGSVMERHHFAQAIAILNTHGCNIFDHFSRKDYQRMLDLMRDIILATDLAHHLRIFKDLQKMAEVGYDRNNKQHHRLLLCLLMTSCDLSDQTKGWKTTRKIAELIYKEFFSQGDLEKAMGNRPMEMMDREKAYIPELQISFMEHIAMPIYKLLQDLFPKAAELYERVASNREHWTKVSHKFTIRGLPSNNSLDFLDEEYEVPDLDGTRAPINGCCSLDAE
Sequence of P-glycoprotein (P-gp, rat Mdr1a) (Q6PSM0 1-1272): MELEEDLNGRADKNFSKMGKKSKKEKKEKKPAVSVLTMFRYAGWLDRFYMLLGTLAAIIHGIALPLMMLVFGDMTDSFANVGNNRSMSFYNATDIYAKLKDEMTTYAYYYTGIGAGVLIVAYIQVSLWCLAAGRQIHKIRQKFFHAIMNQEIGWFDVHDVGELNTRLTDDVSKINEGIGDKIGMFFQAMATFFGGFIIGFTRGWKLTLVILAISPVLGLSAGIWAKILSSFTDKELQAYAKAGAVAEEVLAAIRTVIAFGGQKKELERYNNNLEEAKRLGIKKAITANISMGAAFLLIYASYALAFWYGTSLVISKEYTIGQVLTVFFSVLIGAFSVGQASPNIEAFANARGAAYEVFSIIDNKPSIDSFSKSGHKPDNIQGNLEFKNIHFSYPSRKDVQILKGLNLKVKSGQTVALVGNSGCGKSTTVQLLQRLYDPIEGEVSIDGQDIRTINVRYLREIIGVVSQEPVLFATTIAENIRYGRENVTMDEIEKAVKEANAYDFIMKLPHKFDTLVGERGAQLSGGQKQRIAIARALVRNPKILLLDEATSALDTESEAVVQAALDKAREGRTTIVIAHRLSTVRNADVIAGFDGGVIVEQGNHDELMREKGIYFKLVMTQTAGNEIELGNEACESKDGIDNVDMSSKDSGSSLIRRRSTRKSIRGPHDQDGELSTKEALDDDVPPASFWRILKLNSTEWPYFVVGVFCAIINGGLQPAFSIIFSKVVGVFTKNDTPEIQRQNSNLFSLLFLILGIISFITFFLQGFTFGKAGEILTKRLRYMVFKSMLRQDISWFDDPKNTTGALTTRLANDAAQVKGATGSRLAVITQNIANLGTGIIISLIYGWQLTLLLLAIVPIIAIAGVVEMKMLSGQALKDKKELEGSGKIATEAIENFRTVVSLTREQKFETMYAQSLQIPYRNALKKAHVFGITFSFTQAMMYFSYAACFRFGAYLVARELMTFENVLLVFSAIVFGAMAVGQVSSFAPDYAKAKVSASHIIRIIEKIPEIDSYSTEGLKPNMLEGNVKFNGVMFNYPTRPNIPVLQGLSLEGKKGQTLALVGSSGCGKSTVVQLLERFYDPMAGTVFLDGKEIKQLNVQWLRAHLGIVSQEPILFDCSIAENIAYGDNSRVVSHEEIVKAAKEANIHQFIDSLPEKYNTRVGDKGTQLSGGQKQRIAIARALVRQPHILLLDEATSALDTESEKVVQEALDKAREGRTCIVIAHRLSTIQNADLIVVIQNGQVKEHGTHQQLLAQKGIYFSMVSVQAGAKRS

Ki (Rhesus PDE2A3; [2]) | Ki (human PDE2A1; [3]) | efflux ratio at 1 μM (P-glycoprotein (P-gp)) | efflux ratio at 1 μM [1] | Ki (Rhesus PDE2A3; [4]) | Ki (human PDE2A1; [5]) | Structure (SMILES)
 |  | 1 | 4.5 | 0.39 nM | 0.18 nM | CC(C)[C@@H](NC(=O)c1cc(=O)[nH]c(N2CCCC2)n1)c1ccc(C(F)(F)F)cc1 [Example 95, N-{(1R)-2-methyl-1-[4-(trifluoromethyl)phenyl]propyl}-6-oxo-2-pyrrolidin-1-yl-1,6-dihydropyrimidine-4-carboxamide]
 |  | 0.5 | 2.5 | 0.36 nM | 0.2 nM | C[C@@H](NC(=O)c1cc(=O)[nH]c(N(C)C)n1)c1ccc(SC(F)(F)F)c(F)c1 [Example 96, 2-(dimethylamino)-N-[(1R)-1-{3-fluoro-4-[(trifluoromethyl)sulfanyl]phenyl}ethyl]-6-oxo-1,6-dihydropyrimidine-4-carboxamide]
 |  | 0.4 | 1.8 | 0.62 nM | 0.34 nM | CN(C)c1nc(C(=O)N[C@@H](c2ccc(SC(F)(F)F)c(F)c2)C2CC2)cc(=O)[nH]1 [Example 97, N-[(R)-cyclopropyl{3-fluoro-4-[(trifluoromethyl)sulfanyl]phenyl}methyl]-2-(dimethylamino)-6-oxo-1,6-dihydropyrimidine-4-carboxamide]
 |  | 0.4 | 3 | 0.54 nM | 0.23 nM | CC[C@@H](NC(=O)c1cc(=O)[nH]c(N(C)C)n1)c1ccc(SC(F)(F)F)c(F)c1 [Example 98, 2-(dimethylamino)-N-[(1R)-1-{3-fluoro-4-[(trifluoromethyl)sulfanyl]phenyl}propyl]-6-oxo-1,6-dihydropyrimidine-4-carboxamide]
1.1 nM | 1.1 nM | 0.7 | 5.8 |  |  | O=C(N[C@@H](c1ccc(S(F)(F)(F)(F)F)cc1)C1CC1)c1cc(=O)[nH]c(N2CCCC2)n1 [Example 99, N-{(R)-cyclopropyl[4-(pentafluoro-λ^6-sulfanyl)phenyl]methyl}-6-oxo-2-pyrrolidin-1-yl-1,6-dihydropyrimidine-4-carboxamide]
0.17 nM | 0.21 nM | 0.7 | 2.9 |  |  | CN(C)c1nc(C(=O)N[C@@H](c2ccc(OC(F)(F)F)cc2)C(C)(C)C)cc(=O)[nH]1 [Example 100, 2-(dimethylamino)-N-{(1R)-2,2-dimethyl-1-[4-(trifluoromethoxy)phenyl]propyl}-6-oxo-1,6-dihydropyrimidine-4-carboxamide]
0.14 nM | 0.12 nM | 1.7 | 10.1 |  |  | CN(C)c1nc(C(=O)N[C@@H](c2ccc(OC(F)(F)F)c(F)c2)C(C)(C)C)cc(=O)[nH]1 [Example 101, 2-(dimethylamino)-N-{(1R)-1-[3-fluoro-4-(trifluoromethoxy)phenyl]-2,2-dimethylpropyl}-6-oxo-1,6-dihydropyrimidine-4-carboxamide]

More lines, now with the values behind:

Structure (SMILES) | Ki (Rhesus PDE2A3; [2]) | Ki (human PDE2A1; [3]) | efflux ratio at 1 μM (P-glycoprotein (P-gp)) | efflux ratio at 1 μM [1] | Ki (Rhesus PDE2A3; [4]) | Ki (human PDE2A1; [5])
CC(C)[C@@H](NC(=O)c1cc(=O)[nH]c(N(C)C)n1)c1ccc(C(C)(F)F)c(F)c1 [Example 77, N-{(1R)-1-[4-(1,1-difluoroethyl)-3-fluorophenyl]-2-methylpropyl}-2-(dimethylamino)-6-oxo-1,6-dihydropyrimidine-4-carboxamide] | 0.21 nM | 0.19 nM | 1.1 | 7.3 |  | 
COc1cc(C(F)(F)F)ccc1C(C)(C)NC(=O)c1cc(=O)[nH]c(N(C)C)n1 [Example 79, 2-(dimethylamino)-N-{1-[2-methoxy-4-(trifluoromethyl)phenyl]-1-methylethyl}-6-oxo-1,6-dihydropyrimidine-4-carboxamide] | 6.4 nM | 7.7 nM | 0.9 | 6.2 |  | 
CN(C)c1nc(C(=O)NC(C)(C)c2ccc(C(F)(F)F)cc2Cl)cc(=O)[nH]1 [Example 80, N-{1-[2-chloro-4-(trifluoromethyl)phenyl]-1-methylethyl}-2-(dimethylamino)-6-oxo-1,6-dihydropyrimidine-4-carboxamide] | 0.65 nM | 0.79 nM | 0.4 | 1.7 |  | 
C[C@@H](NC(=O)c1cc(=O)[nH]c(N(C)C)n1)c1ccc(OC(F)(F)F)cc1 [Example 87, 2-(dimethylamino)-6-oxo-N-{(1R)-1-[4-(trifluoromethoxy)phenyl]ethyl}-1,6-dihydropyrimidine-4-carboxamide] |  |  | 0.5 | 2.2 | 1.1 nM | 0.74 nM
CC[C@@H](NC(=O)c1cc(=O)[nH]c(N(C)C)n1)c1ccc(SC(F)(F)F)cc1 [Example 88, 2-(dimethylamino)-6-oxo-N-[(1R)-1-{4-[(trifluoromethyl)sulfanyl]phenyl}propyl]-1,6-dihydropyrimidine-4-carboxamide] | 0.51 nM | 0.69 nM | 0.3 | 1.8 | 0.61 nM | 5.05 nM
C[C@@H](NC(=O)c1cc(=O)[nH]c(N(C)C)n1)c1ccc(S(F)(F)(F)(F)F)cc1 [Example 89, 2-(dimethylamino)-6-oxo-N-{(1R)-1-[4-(pentafluoro-λ^6-sulfanyl)phenyl]ethyl}-1,6-dihydropyrimidine-4-carboxamide] |  |  | 0.4 | 2.9 | 1.1 nM | 0.41 nM
C[C@@H](NC(=O)c1cc(=O)[nH]c(N(C)C)n1)c1ccc(OC(F)(F)F)c(F)c1 [Example 90, 2-(dimethylamino)-N-{(1R)-1-[3-fluoro-4-(trifluoromethoxy)phenyl]ethyl}-6-oxo-1,6-dihydropyrimidine-4-carboxamide] |  |  | 0.5 | 2.7 | 0.69 nM | 0.28 nM
CC(C)[C@@H](NC(=O)c1cc(=O)[nH]c(N(C)C)n1)c1ccc(OC(F)(F)F)cc1 [Example 91, 2-(dimethylamino)-N-{(1R)-2-methyl-1-[4-(trifluoromethoxy)phenyl]propyl}-6-oxo-1,6-dihydropyrimidine-4-carboxamide] |  |  | 0.6 | 5.1 | 0.64 nM | 0.19 nM
CN(C)c1nc(C(=O)NC2(c3ccc(SC(F)(F)F)cc3)CC2)cc(=O)[nH]1 [Example 92, 2-(dimethylamino)-6-oxo-N-(1-{4-[(trifluoromethyl)sulfanyl]phenyl}cyclopropyl)-1,6-dihydropyrimidine-4-carboxamide] |  |  | 0.4 | 1.7 | 2.5 nM | 1.8 nM
CN(C)c1nc(C(=O)NC(C)(C)c2ccc(C(F)(F)F)c(F)c2)cc(=O)[nH]1 [Example 93, 2-(dimethylamino)-N-{1-[3-fluoro-4-(trifluoromethyl)phenyl]-1-methylethyl}-6-oxo-1,6-dihydropyrimidine-4-carboxamide] |  |  | 0.3 | 1.9 | 4 nM | 3.8 nM
CN(C)c1nc(C(=O)NC2(c3ccc(C(F)(F)F)c(F)c3)CC2)cc(=O)[nH]1 [Example 94, 2-(dimethylamino)-N-{1-[3-fluoro-4-(trifluoromethyl)phenyl]cyclopropyl}-6-oxo-1,6-dihydropyrimidine-4-carboxamide] | 0.8 nM | 0.96 nM | 0.5 | 2.6 | 1.2 nM | 0.9 nM
